Source: patent US20080161307A1, “Organic Compounds” (priority 2005, published 2008)

Test system: healthy male volunteers
Assay: Randomized, double-blind, placebo-controlled gastric emptying study (99Tc radiolabeled meal, external scintigraphy)
Assay type: in vivo, human
Procedure: Methodology: This is a single center, double-blind, randomized, parallel group trial using a placebo control or tegaserod 6 mg t.i.d. in combination with omeprazole 20 mg b.i.d. Gastric emptying is assessed using a standardized method that has been previously validated and found to be sensitive and specific. After an overnight fast, the subjects are asked to ingest a standardized ^99Tc radiolabeled meal (250 ml EggBeater, the equivalent of two eggs, two slices of white bread, 30 cc of strawberry jam and 120 ml of water). The level of radioactivity in gastric contents is measured by external scintigraphy immediately following completion of the meal and then at 60, 120 and 240 minutes after the end of the meal.
Number of subjects: 40 healthy male volunteers (20 per group)
Investigational drug: Tegaserod 6 mg tablets (supplied by Novartis Canada, but are normal 6 mg Zelnorm tablet obtainable as prescription) for oral administration. Each dose consists of a tablet to be taken with a glass of water within 15-30 minutes before mealtime three times daily. […]
Efficacy: The primary efficacy parameter is time to half emptying (T1/2) of gastric contents. The secondary efficacy endpoints were the calculated lag phase, and percent of gastric contents remaining in the stomach at 60, 120 and 240 minutes after ingestion of a standard meal. […]

CCCCCNC(=N)N/N=C/c1c[nH]c2ccc(OC)cc12 [tegaserod, 3-(5-methoxy-1H-indol-3-yl-methylene)-N-pentylcarbazimidamide]
gastric emptying at all the studied time points versus baseline (tegaserod 6 mg t.i.d. in combination with omeprazole 20 mg b.i.d., oral, 14 days): not statistically different from the respective baseline values | development of delayed gastric emptying caused by omeprazole (tegaserod added to omeprazole, healthy male volunteers): prevented development of delayed gastric emptying
